These results are taken from article PMC5469208 (Molecular microbiology, 2016).

The test system of data set [1] is S. aureus. The conditions noted are these: ref Conlon et al., 2013; cited from earlier work.
Data set [2] deals with M. bovis BCG clpP1-tetoff. In words: microbe, parasite or virus in culture. The class given is cell-based, Mycobacterium bovis BCG.
In data set [3] the test system is B. subtilis 168ΔclpP. As to the kind of experiment: microbe, parasite or virus in culture. The class given is cell-based. The conditions noted are these: Bacillus subtilis, LB medium.
Data set [4] deals with M. tuberculosis H37Rv. In words: MIC determination by broth microdilution, M. tuberculosis. The data set is classed as cell-based. The conditions noted are these: Mycobacterium tuberculosis.
The test system of data set [5] is B. subtilis 168-pX2-clpP. In words: MIC determination, conditional strain B. subtilis 168-pX2-clpP. The class given is cell-based. The conditions noted are these: Bacillus subtilis, 168PX2CLPP, LB medium.
Data set [6] deals with M. bovis BCG Pasteur. In words: microbe, parasite or virus in culture. The data set is classed as cell-based, Mycobacterium bovis BCG.
The subject of data set [7] is B. subtilis 168. In words: MIC determination by broth microdilution, B. subtilis 168 wt. The data set is classed as cell-based. Conditions: Bacillus subtilis, 168, B. subtilis 168 wt, LB medium.
Data set [8] relates to ClpC1. Conditions: ref Gavrish et al., 2014 (lassomycin); Gao et al., 2014 (ecumicin); cited from earlier work.
Data set [9] has as its system ClpC1. The conditions noted are these: binding to the ATPase ClpC1; ref Schmitt et al., 2011; cited from earlier work.
For data set [10], the system named is M. bovis wildtype (wt). The class given is cell-based, Mycobacterium bovis BCG.
Data set [11] relates to ClpP2. The data set is classed as cell-based, M. bovis BCG.
The subject of data set [12] is M. bovis BCG clpP1-tetoff. The class given is cell-based, Mycobacterium bovis BCG.
Data set [13] deals with T1, BS ClpP (Bacillus subtilis, UniProt P80244). As to the kind of experiment: suc-LY-amc hydrolysis competition assay with BS ClpP. The class given is biochemical, B. subtilis. The conditions noted are these: 3 μM BS ClpP, 30 μM suc-LY-amc, 0–60 μM ADEP2, 0, 500 or 2500 μM Z-LL, pH 8.
T1 sequence (P80244 whole entry): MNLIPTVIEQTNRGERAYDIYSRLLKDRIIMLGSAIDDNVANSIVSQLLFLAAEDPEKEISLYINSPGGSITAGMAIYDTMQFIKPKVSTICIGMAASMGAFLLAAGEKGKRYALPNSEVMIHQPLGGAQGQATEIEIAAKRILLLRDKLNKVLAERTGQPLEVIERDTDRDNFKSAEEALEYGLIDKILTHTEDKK
Data set [14] deals with MTB ClpP1P2 (Mycobacterium tuberculosis, UniProt P9WPC3+P9WPC5). In words: Z-GGL-amc peptidase activity of Z-LL pre-activated ClpP1P2. The class given is biochemical, M. tuberculosis. The conditions noted are these: 5 mM Z-LL, without ADEP.
Data set [15] has as its target T1, BS ClpP. As to the kind of experiment: Z-LL stability in the presence of BS ClpP, HPLC. More on the design: species or system B. subtilis. The conditions noted are these: 1 mM Z-LL, 3 μM BS ClpP, 3 h, 37 °C, activity buffer, Fig. S3.
Data set [16] concerns M. smegmatis mc^2155. As to the kind of experiment: MIC determination by broth microdilution, M. smegmatis. Conditions: Mycolicibacterium smegmatis, MC^2155, 48 h. The data set is classed as cell-based, Mycobacterium smegmatis.
Where [17] appears, read: M. bovis BCG wt, 25 ng ml^−1 ATc.
The mark [18] stands for this setting: M. bovis BCG wt, no ATc (Table 2).
Setting [19] is: Mycobacterium tuberculosis variant bovis BCG, BCG.

Converted amounts (≈) assume the structure as drawn. “Also recorded” adds a separate entry of the source. Like-named read-outs stand apart in the source and are kept apart here.

Turning to `CO[C@H]1/C=C/O[C@@]2(C)Oc3c(C)c(O)c4c(O)c(c(/C=N/N5CCN(C)CC5)c(O)c4c3C2=O)NC(=O)/C(C)=C\C=C\[C@H](C)[C@H](O)[C@@H](C)[C@@H](O)[C@@H](C)[C@H](OC(C)=O)[C@@H]1C` [Rifampicin], the “synergy with ADEP against S. aureus” value in [1] is “act synergistically with ADEP against S. aureus”.
With `CN[C@@H]1[C@@H](O[C@H]2O[C@H](CO)[C@@H](N)[C@H](O)[C@H]2O)OC2C[C@@H](N)[C@@H](O[C@H]3[C@H](O)[C@@H](O)[C@H](N)C[C@@H]3N)OC2[C@@H]1O` (some centres unmarked) [apramycin], the “effect of ATc (clpP1P2 down-regulation) on sensitivity to the antibiotic” value in data set [2] is “did not occur”. Further, the MIC in [3] (10% xylose) was determined as 1 µg/mL (≈ 1.85 µM); in data set [3] (no xylose) it was 2 µg/mL (≈ 3.71 µM); in data set [4], 1 µg/mL (≈ 1.85 µM); in data set [5] (1% xylose), 1 µg/mL (≈ 1.85 µM); in data set [5] (2% xylose), 2 µg/mL (≈ 3.71 µM); in data set [5] (3% xylose), 2 µg/mL (≈ 3.71 µM). Further, the MIC came out at 4 µg/mL (≈ 7.41 µM) in data set [5] (4% xylose); 2 µg/mL (≈ 3.71 µM) in data set [5] (5% xylose); 4 µg/mL (≈ 7.41 µM) in [5] (8% xylose); 4 µg/mL (≈ 7.41 µM) in [5] (10% xylose); 2 µg/mL (≈ 3.71 µM) in [5] (no xylose); 1 µg/mL (≈ 1.85 µM) in data set [6] (setting [17]). Moreover, the MIC in [6] (setting [18]) came to 1 µg/mL (≈ 1.85 µM); in data set [6] (setting [19]), 1 µg/mL (≈ 1.85 µM); in data set [7] (10% xylose) it was 2 µg/mL (≈ 3.71 µM); in data set [7] (no xylose), 4 µg/mL (≈ 7.41 µM).
In the case of lassomycin, the “ATP-hydrolysis by ClpC1, uncoupling from protein degradation by ClpP1P2” value in [8] is “stimulate ATP-hydrolysis by ClpC1, while uncoupling it from protein degradation by ClpP1P2”.
Turning to ecumicin, the “ATP-hydrolysis by ClpC1, uncoupling from protein degradation by ClpP1P2” value in data set [8] was “stimulate ATP-hydrolysis by ClpC1, while uncoupling it from protein degradation by ClpP1P2”.
As to Cyclomarin, the “hydrolysis of a model protein in M. smegmatis” value in [9] is “increased hydrolysis of a model protein”.
Consider `Cc1c2c(c(O)c3c(O)cccc13)C(=O)[C@]1(O)C(=O)C(C(N)=O)=C(O)[C@@H](N(C)C)[C@@H]1C2` [ATc, anhydrotetracycline], for which the “growth of M. bovis wildtype” value in [10] (2 ng ml^−1 ATc) is reported as “not affected”; in data set [10] (25 ng ml^−1 ATc, MIC growth controls), “did not impede growth of the wildtype strain”. Moreover, in data set [11], the “ClpP2 / ClpP1P2 protein level” value is “considerably reduced level”. For the same compound, the “growth of clpP1-tetoff strain” value in data set [12] is listed as “slowed down the growth rate; also recorded: the cells were dying”.
Take benzyloxycarbonyl-leucyl-leucine [Z-LL]: the “mode of inhibition of Z-LL versus ADEP2” value in data set [13] is listed as “non-competitive with ADEP”. The “peptidase activity of ClpP1P2 activated by Z-LL alone” value in [14] was “able to degrade the fluorogenic peptide substrate Z-GGL-amc”. Moreover, the “amount of Z-LL after incubation with BS ClpP” value in data set [15] was “not reduced after 3 hours incubation”.
For the compound `NNC(=O)c1ccncc1` [isoniazid], the “effect of ATc (clpP1P2 down-regulation) on sensitivity to the antibiotic” value in [2] was “did not occur”. Moreover, the MIC in [2] (setting [19]) was 0.03 µg/mL (≈ 0.219 µM); in data set [6] (M. bovis BCG Pasteur, 7H9 medium), 0.06 µg/mL (≈ 0.438 µM); in [6] (setting [17]) it was 0.06 µg/mL (≈ 0.438 µM); in data set [6] (setting [18]), 0.06 µg/mL (≈ 0.438 µM); in data set [6] (setting [19]), 0.06 µg/mL (≈ 0.438 µM); in [16], 4 µg/mL (≈ 29.2 µM).
